Results taken from US20140187548A1, “6 SUBSTITUTED IMIDAZOPYRAZINES FOR USE AS MPS-1 AND TKK INHIBITORS IN THE TREATMENT OF HYPERPROLIFERATIVE DISORDERS” (BAYER INTELLECTUAL PROPERTY GMBH, priority 2010, published 2014).
pIC50: −log10 of the molar value.

Each compound was assayed against T1, human kinase Mps-1 (Homo sapiens, UniProt P33981) (assay: Mps-1 kinase assay (TR-FRET)). Conditions: N-terminally GST-tagged human full length recombinant Mps-1; 10 μM ATP; 1 μM peptide substrate; 15 min pre-incubation; 60 min at 22° C.
T1 construct: N-terminally GST-tagged human full length recombinant Mps-1 kinase; GST (N); purchased Invitrogen, Karslruhe, Germany PV4071
T1 sequence (P33981 1-857): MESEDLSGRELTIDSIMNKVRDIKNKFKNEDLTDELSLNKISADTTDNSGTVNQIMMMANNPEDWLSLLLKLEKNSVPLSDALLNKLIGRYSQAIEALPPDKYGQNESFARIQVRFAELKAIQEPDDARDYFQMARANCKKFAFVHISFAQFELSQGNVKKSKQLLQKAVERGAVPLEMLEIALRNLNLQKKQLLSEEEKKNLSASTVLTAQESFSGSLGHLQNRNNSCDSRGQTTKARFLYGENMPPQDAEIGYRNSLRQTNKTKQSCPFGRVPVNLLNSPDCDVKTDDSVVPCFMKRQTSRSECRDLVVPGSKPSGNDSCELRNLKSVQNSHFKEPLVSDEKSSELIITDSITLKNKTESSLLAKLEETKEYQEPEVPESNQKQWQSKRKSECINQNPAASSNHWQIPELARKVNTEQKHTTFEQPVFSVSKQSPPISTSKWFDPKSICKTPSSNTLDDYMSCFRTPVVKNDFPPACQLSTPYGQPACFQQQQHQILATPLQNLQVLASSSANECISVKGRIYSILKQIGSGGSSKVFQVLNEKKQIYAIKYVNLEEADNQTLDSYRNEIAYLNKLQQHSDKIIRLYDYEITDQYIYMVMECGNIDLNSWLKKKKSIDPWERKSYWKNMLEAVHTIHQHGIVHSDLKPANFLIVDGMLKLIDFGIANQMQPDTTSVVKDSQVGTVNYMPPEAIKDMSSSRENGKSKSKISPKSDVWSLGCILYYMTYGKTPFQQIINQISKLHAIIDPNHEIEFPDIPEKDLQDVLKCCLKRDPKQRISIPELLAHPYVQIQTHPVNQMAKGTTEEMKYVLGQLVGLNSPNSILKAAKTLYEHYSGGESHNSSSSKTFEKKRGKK
Format: biochemical
Procedure, shortened: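 N-terminally GST-tagged full-length recombinant human Mps-1, about 1 nM final, phosphorylates a biotinylated peptide. Product detected by TR-FRET from Eu-anti-phospho-Ser/Thr antibody to streptavidin-XLent after 1 h at 22° C.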

| SMILES | pIC50 |
| --- | --- |
| N#Cc1cccc(CNc2nc(-c3ccccc3)cn3c(-c4ccc(C(=O)NC5CC5)cc4)cnc23)c1 [Example 2-61, 4-{8-[(3-cyanobenzyl)amino]-6-phenylimidazo[1,2-a]pyrazin-3-yl}-N-cyclopropylbenzamide] | 7.92 |
| CNC(=O)c1ccc(-c2cn3c(-c4ccc(C(=O)NC5CC5)cc4)cnc3c(NCC(C)C)n2)cc1 [Example 1-31, 4-{3-[4-(cyclopropyl-carbamoyl)phenyl]-8-[(2-methylpropyl)amino]imidazo[1,2-a]pyrazin-6-yl}-N-methylbenzamide] | 8.89 |
| O=C(NC1CC1)c1ccc(-c2cnc3c(NCCCn4ccnc4)nc(-c4ccccc4)cn23)cc1 [Example 2-71, N-cyclopropyl-4-(8-{[3-(1H-imidazol-1-yl)propyl]amino}-6-phenylimidazo[1,2-a]pyrazin-3-yl)benzamide] | 8.39 |
| CC(C)CNc1nc(-c2cccc3ccccc23)cn2c(-c3ccc(C(=O)NC4CC4)cc3)cnc12 [Example 1-4, N-cyclopropyl-4-{8-[(2-methylpropyl)amino]-6-(naphthalen-1-yl)imidazo[1,2-a]pyrazin-3-yl}benzamide] | 8.34 |
| CC(C)CNc1nc(-c2ccc(F)cc2)cn2c(-c3ccc(C(=O)NC4CC4)c(F)c3)cnc12 [Example 1-109, N-cyclopropyl-2-fluoro-4-{6-(4-fluorophenyl)-8-[(2-methylpropyl)amino]imidazo[1,2-a]pyrazin-3-yl}benzamide] | 8.28 |
| CC(C)(O)CNc1nc(-c2ccn[nH]2)cn2c(-c3ccc(C(=O)NC4CC4)c(Cl)c3)cnc12 [Example 1-101, 2-chloro-N-cyclopropyl-4-{8-[(2-hydroxy-2-methyl-propyl)amino]-6-(1H-pyrazol-5-yl)imidazo [1,2-a]pyrazin-3-yl} benzamide] | 7.04 |
| CC(C)CNc1nc(-c2ccc(N3CCOCC3)cc2)cn2c(-c3ccc(C(=O)NC4CC4)cc3)cnc12 [Example 1-91, N-cyclopropyl-4-{8-[(2-methylpropyl)amino]-6-[4-(morpholin-4-yl)phenyl]imidazo[1,2-a]pyrazin-3-yl}benzamide] | 8.82 |
| O=C(NC1CC1)c1ccc(-c2cnc3c(NCCc4ccncc4)nc(-c4ccccc4)cn23)cc1 [Example 2-41, N-cyclopropyl-4-(6-phenyl-8-{[2-(pyridin-4-yl)ethyl]amino}imidazo[1,2-a]pyrazin-3-yl) benzamide] | 8.26 |
| CC(C)CNc1nc(-c2cccc(OC(C)C)c2)cn2c(-c3ccc(C(=O)NC4CC4)cc3)cnc12 [Example 1-29, N-cyclopropyl-4-{8-[(2-methylpropyl)amino]-6-[3-(propan-2-yloxy)phenyl]imidazo[1,2-a]pyrazin-3-yl}benzamide] | 7.82 |
| O=C(NC1CC1)c1ccc(-c2cnc3c(NCC(F)(F)F)nc(-c4ccccc4)cn23)cc1 [Example 2-85, N-cyclopropyl-4-{6-phenyl-8-[(2,2,2-trifluoroethyl)amino]imidazo[1,2-a]pyrazin-3-yl}benzamide] | 8.55 |
| CC(C)CNc1nc(-c2cccc(C(=O)Nc3ccccc3)c2)cn2c(-c3ccc(C(=O)NC4CC4)cc3)cnc12 [Example 1-57, 3-{3-[4-(cyclopropyl-carbamoyl)phenyl]-8-[(2-methylpropyl)amino]imidazo[1,2-a]pyrazin-6-yl}-N-phenylbenzamide] | 7.98 |
| COc1cccc(-c2cn3c(-c4ccc(C(=O)NC5CC5)cc4)cnc3c(NCC(C)C)n2)c1 [Example 1-38, N-cyclopropyl-4-{6-(3-methoxyphenyl)-8-[(2-methylpropyl)amino]imidazo[1,2-a]pyrazin-3-yl}benzamide] | 8.32 |
| O=C(NC1CC1)c1ccc(-c2cnc3c(NCCC(F)(F)F)nc(-c4ccccc4)cn23)cc1 [Example 2-43, N-cyclopropyl-4-{6-phenyl-8-[(3,3,3-trifluoropropyl)amino]imidazo[1,2-a]pyrazin-3-yl} benzamide] | 8.96 |
| CC(C)CNc1nc(-c2ccc(C(=O)Nc3ccccc3)cc2)cn2c(-c3ccc(C(=O)NC4CC4)cc3)cnc12 [Example 1-53, 4-{3-[4-(cyclopropyl-carbamoyl)phenyl]-8-[(2-methylpropyl)amino]imidazo[1,2-a]pyrazin-6-yl}-N-phenylbenzamide] | 8.68 |
| Cc1cc(-c2cnc3c(NCC4CCCO4)nc(-c4ccc(F)cc4)cn23)ccc1C(=O)NC1CC1 (centres unmarked) [Example 10-2, N-cyclopropyl-4-{6-(4-fluorophenyl)-8-[(tetrahydrofuran-2-ylmethyl)amino]imidazo [1,2-a]pyrazin-3-yl}-2-methylbenzamide] | 8.04 |
| O=C(NC1CC1)c1ccc(-c2cnc3c(NCC4CC4)nc(-c4ccccc4)cn23)cc1 [Example 2-23, N-cyclopropyl-4-{8-[(cyclo-propylmethyl)amino]-6-phenylimidazo[1,2-a]pyrazin-3-yl}benzamide] | 8.57 |
| O=C(NC1CC1)c1ccc(-c2cnc3c(NCCSC(F)(F)F)nc(-c4ccccc4)cn23)cc1 [Example 2-83, N-cyclopropyl-4-[6-phenyl-8-({2-[(trifluoromethyl)sulfanyl]ethyl}amino)imidazo[1,2-a]pyrazin-3-yl]benzamide] | 8.27 |
| O=C(NC1CC1)c1ccc(-c2cnc3c(NCC4CCCO4)nc(-c4ccc(F)cc4)cn23)cc1Cl (centres unmarked) [Example 1-103, 2-chloro-N-cyclopropyl-4-{6-(4-fluorophenyl)-8-[(tetrahydrofuran-2-ylmethyl)amino]imidazo [1,2-a]pyrazin-3-yl} benzamide] | 7.54 |
| CC(C)CNc1nc(-c2ccccc2F)cn2c(-c3ccc(C(=O)NC4CC4)cc3)cnc12 [Example 1-51, N-cyclopropyl-4-{6-(2-fluorophenyl)-8-[(2-methylpropyl)amino]imidazo[1,2-a]pyrazin-3-yl}benzamide] | 8.43 |
| CC(C)CNc1nc(-c2ccc(N(C)C)cc2)cn2c(-c3ccc(C(=O)NC4CC4)cc3)cnc12 [Example 1-92, N-cyclopropyl-4-{6-[4-(dimethylamino)phenyl]-8-[(2-methylpropyl)amino]imidazo[1,2-a]pyrazin-3-yl}benzamide] | 8.12 |
| CCNc1nc(-c2ccccc2)cn2c(-c3ccc(C(=O)NC4CC4)cc3)cnc12 [Example 2-16, N-cyclopropyl-4-[8-(ethylamino)-6-phenylimidazo [1,2-a]pyrazin-3-yl]benzamide] | 8.48 |
| O=C(NC1CC1)c1ccc(-c2cnc3c(NCCCF)nc(-c4ccccc4)cn23)cc1 [Example 2-62, N-cyclopropyl-4-{8-[(3-fluoropropyl)amino]-6-phenylimidazo[1,2-a]pyrazin-3-yl}benzamide] | 8.96 |
| Cn1nccc1CNc1nc(-c2ccccc2)cn2c(-c3ccc(C(=O)NC4CC4)cc3)cnc12 [Example 2-54, N-cyclopropyl-4-(8-{[(1-methyl-1H-pyrazol-5-yl)methyl]amino}-6-phenylimidazo[1,2-a]pyrazin-3-yl)benzamide] | 8.82 |
| CCCc1cn2c(-c3ccc(C(=O)NC4CC4)cc3)cnc2c(NCC(C)C)n1 [Example 11-3, N-cyclopropyl-4-{8-[(2-methylpropyl)amino]-6-propylimidazo [1,2-a]pyrazin-3-yl}benzamide] | 8.27 |
| CN(C)c1ccc(-c2cn3c(-c4ccc(C(=O)NC5CC5)c(F)c4)cnc3c(NCC3CCCO3)n2)cc1 (centres unmarked) [Example 1-117, N-cyclopropyl-4-{6-[4-(dimethylamino)phenyl]-8-[(tetrahydrofuran-2-ylmethyl)amino]imidazo [1,2-a]pyrazin-3-yl}-2-fluorobenzamide] | 7.54 |
| CN(C)CCCCNc1nc(-c2ccccc2)cn2c(-c3ccc(C(=O)NC4CC4)cc3)cnc12 [Example 2-38, N-cyclopropyl-4-(8-{[4-(dimethylamino)butyl]amino}-6-phenylimidazo[1,2-a]pyrazin-3-yl)benzamide] | 7.88 |
| CC(C)CNc1nc(-c2cccc(Cl)c2)cn2c(-c3ccc(C(=O)NC4CC4)cc3)cnc12 [Example 1-37, 4-{6-(3-chlorophenyl)-8-[(2-methylpropyl)amino]imidazo[1,2-a]pyrazin-3-yl}-N-cyclopropyl-benzamide] | 7.82 |
| COc1ccc(-c2cn3c(-c4ccc(C(=O)NC5CC5)cc4)cnc3c(NCC(C)C)n2)cc1F [Example 1-62, N-cyclopropyl-4-{6-(3-fluoro-4-methoxyphenyl)-8-[(2-methylpropyl)amino]imidazo[1,2-a]pyrazin-3-yl}benzamide] | 8.17 |
| CC(=O)c1cccc(-c2cn3c(-c4ccc(C(=O)NC5CC5)cc4)cnc3c(NCC(C)C)n2)c1 [Example 1-46, 4-{6-(3-acetylphenyl)-8-[(2-methylpropyl)amino]imidazo[1,2-a]pyrazin-3-yl}-N-cyclo-propylbenzamide] | 8.64 |
